# According to US12240816B2, “Deuterated compounds and uses thereof” (Aldeyra Therapeutics, Inc., priority 2015, dated 2025):
# Where “and” joins values, the source holds several entries; their conditions need not be identical. Equal entries are not always repeated. Entries after “also recorded” stand apart in the source; their conditions may differ. Where two headings read alike, the source gives them in different places. Marks after values point to notes of the source that are not given here.
# Columns and labels:
# 5-HT2B (h) = 5-HT2B (h) (Homo sapiens, UniProt P41595); experiment: 5-HT2B (h) (agonist radioligand) binding assay; details: 1.0E−05M
# MAO-A = MAO-A (Rattus norvegicus, UniProt P21396); experiment: MAO-A (antagonist radioligand) binding assay; details: 1.0E−05M
# MT3 (ML2) = target: T1, MT3 (ML2) (Mesocricetus auratus, UniProt A0ABM2YAB8); experiment: MT3 (ML2) (agonist radioligand) binding assay; details: MT3 (ML2)(h) (agonist radioligand), 1.0E−05M
# T1 sequence (A0ABM2YAB8 1-231): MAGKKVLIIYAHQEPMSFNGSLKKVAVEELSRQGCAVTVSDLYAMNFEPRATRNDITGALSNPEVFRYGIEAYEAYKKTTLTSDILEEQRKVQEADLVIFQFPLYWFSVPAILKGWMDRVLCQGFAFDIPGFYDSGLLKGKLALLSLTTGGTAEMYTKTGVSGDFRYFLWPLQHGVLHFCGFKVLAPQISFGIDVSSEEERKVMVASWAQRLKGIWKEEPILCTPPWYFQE
# PR (h) = target: T2, PR (h) (Homo sapiens, UniProt P06401); experiment: PR (h) (agonist radioligand) binding assay; details: 1.0E−05M
# T2 construct: T47D cells (cytosol)
# T2 sequence (P06401 679-933): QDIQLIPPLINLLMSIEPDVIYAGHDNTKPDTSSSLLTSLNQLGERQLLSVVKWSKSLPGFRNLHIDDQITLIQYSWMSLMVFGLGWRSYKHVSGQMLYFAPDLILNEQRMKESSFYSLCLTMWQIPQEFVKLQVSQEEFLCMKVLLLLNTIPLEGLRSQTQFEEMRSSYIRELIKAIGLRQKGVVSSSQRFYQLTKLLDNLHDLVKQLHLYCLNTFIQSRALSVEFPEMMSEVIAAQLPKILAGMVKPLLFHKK
# guanylyl cyclase (h) = guanylyl cyclase (h) (Homo sapiens, UniProt Q02108+Q02153); type: biochemical; details: guanylyl cyclase (h) (activator effect); 1.0E−05M
# [1] = target: enzyme and uptake assay panel targets (Table 36) (Homo sapiens, UniProt P23219); experiment: biochemical; type: biochemical; details: COX1(h); 1.0E−05M
# [2] = target: enzyme and uptake assay panel targets (Table 36) (Homo sapiens, UniProt Q08499); experiment: biochemical; type: biochemical; details: PDE4D2 (h); 1.0E−05M
# [3] = target: enzyme and uptake assay panel targets (Table 36) (Homo sapiens, UniProt Q13370); experiment: biochemical; type: biochemical; details: PDE3B (h); 1.0E−05M
# [4] = tested on: enzyme and uptake assay panel targets (Table 36); experiment: biochemical; type: biochemical; details: COMT (catechol-O-methyl transferase); 1.0E−05M; flag INTER: Test compound interferes with the assay detection method
# human hepatocytes = type: in vitro ADME
# rat hippocampal cultures = experiment: Propidium iodide cell death assay, protection from hydrogen peroxide toxicity; type: cell-based
# [5] = read-out: % Inhibition of Control Specific Binding 1st
# [6] = read-out: % Inhibition of Control Specific Binding 2nd
# [7] = read-out: % Inhibition of Control Specific Binding Mean
# [8] = NS2 (CoreRx micro-milled, Captisol) 0.1 μM + 10 μM hydrogen peroxide, 5 h
# [9] = NS2 (CoreRx micro-milled, Captisol) 1 μM + 10 μM hydrogen peroxide, 5 h
# [10] = NS2 (CoreRx micro-milled, Captisol) 10 μM + 10 μM hydrogen peroxide, 5 h
# [11] = NS2 (CoreRx micro-milled, Captisol) 100 μM + 10 μM hydrogen peroxide, 5 h
# [12] = NS2 (CoreRx micro-milled, Captisol) 1 mM + 10 μM hydrogen peroxide, 5 h
# [13] = NS2 (CoreRx micro-milled, DMSO) 0.1 μM + 10 μM hydrogen peroxide, 5 h
# [14] = NS2 (CoreRx micro-milled, DMSO) 1 μM + 10 μM hydrogen peroxide, 5 h
# [15] = NS2 (CoreRx micro-milled, DMSO) 10 μM + 10 μM hydrogen peroxide, 5 h
# [16] = NS2 (CoreRx micro-milled, DMSO) 100 μM + 10 μM hydrogen peroxide, 5 h
# [17] = NS2 (CoreRx micro-milled, DMSO) 1 mM + 10 μM hydrogen peroxide, 5 h
# [18] = NS2 (J-Star non-milled, Captisol) 0.1 μM + 10 μM hydrogen peroxide, 5 h
# [19] = NS2 (J-Star non-milled, Captisol) 1 μM + 10 μM hydrogen peroxide, 5 h
# [20] = NS2 (J-Star non-milled, Captisol) 10 μM + 10 μM hydrogen peroxide, 5 h
# [21] = NS2 (J-Star non-milled, Captisol) 100 μM + 10 μM hydrogen peroxide, 5 h
# [22] = NS2 (J-Star non-milled, Captisol) 1 mM + 10 μM hydrogen peroxide, 5 h
# [23] = NS2 (J-Star non-milled, DMSO) 0.1 μM + 10 μM hydrogen peroxide, 5 h
# [24] = NS2 (J-Star non-milled, DMSO) 1 μM + 10 μM hydrogen peroxide, 5 h
# [25] = NS2 (J-Star non-milled, DMSO) 10 μM + 10 μM hydrogen peroxide, 5 h
# [26] = NS2 (J-Star non-milled, DMSO) 100 μM + 10 μM hydrogen peroxide, 5 h
# [27] = NS2 (J-Star non-milled, DMSO) 1 mM + 10 μM hydrogen peroxide, 5 h
# [28] = PI, Captisol formulation, 10 μM hydrogen peroxide, 5 h
# [29] = PI, DMSO formulation, 10 μM hydrogen peroxide, 5 h
# Chain of enzyme and uptake assay panel targets (Table 36) (Homo sapiens, UniProt P23219) (P23219 24-599): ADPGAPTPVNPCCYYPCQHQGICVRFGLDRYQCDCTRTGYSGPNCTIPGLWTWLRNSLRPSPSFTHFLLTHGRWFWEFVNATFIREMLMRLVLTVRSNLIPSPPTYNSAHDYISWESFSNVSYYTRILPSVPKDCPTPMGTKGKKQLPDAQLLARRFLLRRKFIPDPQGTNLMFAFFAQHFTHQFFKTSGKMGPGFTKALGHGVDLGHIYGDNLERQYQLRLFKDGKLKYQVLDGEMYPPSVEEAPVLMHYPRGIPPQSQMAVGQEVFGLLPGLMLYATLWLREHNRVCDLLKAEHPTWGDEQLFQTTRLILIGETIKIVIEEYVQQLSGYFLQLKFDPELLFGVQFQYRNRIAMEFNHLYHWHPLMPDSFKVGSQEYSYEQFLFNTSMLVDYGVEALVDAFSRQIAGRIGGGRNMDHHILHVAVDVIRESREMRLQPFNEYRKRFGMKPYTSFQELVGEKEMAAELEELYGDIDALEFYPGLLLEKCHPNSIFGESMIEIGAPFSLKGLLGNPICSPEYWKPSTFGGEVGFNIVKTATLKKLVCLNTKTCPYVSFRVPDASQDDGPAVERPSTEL
# Chain of enzyme and uptake assay panel targets (Table 36) (Homo sapiens, UniProt Q13370) (Q13370 whole entry): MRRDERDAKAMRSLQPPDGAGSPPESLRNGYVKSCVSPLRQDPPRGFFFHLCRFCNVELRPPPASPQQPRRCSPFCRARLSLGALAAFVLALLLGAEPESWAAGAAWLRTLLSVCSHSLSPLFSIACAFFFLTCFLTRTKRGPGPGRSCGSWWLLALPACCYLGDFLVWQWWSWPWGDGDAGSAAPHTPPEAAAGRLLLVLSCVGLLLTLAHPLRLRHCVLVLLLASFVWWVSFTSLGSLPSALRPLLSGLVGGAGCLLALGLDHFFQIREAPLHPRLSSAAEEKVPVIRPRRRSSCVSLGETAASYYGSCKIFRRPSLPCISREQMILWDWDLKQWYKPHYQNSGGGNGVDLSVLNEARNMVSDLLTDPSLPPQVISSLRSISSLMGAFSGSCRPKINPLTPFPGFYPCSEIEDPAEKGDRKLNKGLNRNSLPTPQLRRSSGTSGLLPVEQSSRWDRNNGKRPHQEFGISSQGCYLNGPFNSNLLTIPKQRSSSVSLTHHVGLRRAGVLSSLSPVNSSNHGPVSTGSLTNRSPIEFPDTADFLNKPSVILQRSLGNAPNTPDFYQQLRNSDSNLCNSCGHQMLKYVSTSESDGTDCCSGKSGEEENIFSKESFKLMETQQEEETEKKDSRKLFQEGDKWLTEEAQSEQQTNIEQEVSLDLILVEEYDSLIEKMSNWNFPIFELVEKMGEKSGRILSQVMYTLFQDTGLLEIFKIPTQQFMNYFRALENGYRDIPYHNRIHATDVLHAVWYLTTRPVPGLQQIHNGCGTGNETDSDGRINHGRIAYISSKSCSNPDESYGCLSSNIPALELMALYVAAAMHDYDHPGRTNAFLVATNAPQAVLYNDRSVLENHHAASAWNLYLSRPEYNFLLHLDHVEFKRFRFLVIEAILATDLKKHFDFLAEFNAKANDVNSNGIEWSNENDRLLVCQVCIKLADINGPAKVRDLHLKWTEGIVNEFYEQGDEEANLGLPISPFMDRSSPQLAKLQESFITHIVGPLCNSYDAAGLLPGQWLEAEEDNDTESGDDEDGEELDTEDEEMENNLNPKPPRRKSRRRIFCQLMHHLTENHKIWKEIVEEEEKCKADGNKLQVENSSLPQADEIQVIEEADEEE
# Chain of guanylyl cyclase (h) (Q02153 whole entry): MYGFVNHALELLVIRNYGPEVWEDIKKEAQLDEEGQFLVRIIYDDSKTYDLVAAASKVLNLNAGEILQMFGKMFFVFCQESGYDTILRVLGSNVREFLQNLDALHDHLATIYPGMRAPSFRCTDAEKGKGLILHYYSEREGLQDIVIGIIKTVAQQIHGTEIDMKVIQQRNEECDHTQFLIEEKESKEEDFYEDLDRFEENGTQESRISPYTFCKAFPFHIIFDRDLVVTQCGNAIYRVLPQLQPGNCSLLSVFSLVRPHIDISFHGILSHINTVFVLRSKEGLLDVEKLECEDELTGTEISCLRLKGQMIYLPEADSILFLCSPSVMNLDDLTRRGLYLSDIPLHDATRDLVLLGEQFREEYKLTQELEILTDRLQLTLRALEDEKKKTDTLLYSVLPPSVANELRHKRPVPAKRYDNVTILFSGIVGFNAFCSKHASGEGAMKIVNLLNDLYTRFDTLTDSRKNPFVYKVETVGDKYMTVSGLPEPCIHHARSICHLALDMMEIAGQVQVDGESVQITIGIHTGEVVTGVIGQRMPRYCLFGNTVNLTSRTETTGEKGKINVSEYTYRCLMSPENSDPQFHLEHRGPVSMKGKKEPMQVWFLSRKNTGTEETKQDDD
# Chain of guanylyl cyclase (h) (Q02108 whole entry): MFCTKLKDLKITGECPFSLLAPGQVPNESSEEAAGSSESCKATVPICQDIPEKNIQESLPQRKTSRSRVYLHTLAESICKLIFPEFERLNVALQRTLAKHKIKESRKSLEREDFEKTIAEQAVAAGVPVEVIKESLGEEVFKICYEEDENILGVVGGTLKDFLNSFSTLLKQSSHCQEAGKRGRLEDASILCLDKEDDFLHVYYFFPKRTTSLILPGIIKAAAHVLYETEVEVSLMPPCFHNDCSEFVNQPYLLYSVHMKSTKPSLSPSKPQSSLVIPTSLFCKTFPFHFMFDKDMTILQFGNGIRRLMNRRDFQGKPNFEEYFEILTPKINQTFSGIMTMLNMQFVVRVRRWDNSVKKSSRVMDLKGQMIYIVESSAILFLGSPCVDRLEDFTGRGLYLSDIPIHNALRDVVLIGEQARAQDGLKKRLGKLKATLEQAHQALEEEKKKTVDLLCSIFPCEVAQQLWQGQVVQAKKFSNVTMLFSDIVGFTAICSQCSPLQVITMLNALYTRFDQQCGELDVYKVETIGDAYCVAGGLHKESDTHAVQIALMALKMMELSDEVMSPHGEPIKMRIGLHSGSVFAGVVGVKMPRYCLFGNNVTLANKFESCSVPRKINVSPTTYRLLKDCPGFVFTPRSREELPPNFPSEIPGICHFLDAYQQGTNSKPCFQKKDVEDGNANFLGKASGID
# Chain of MAO-A (P21396 whole entry): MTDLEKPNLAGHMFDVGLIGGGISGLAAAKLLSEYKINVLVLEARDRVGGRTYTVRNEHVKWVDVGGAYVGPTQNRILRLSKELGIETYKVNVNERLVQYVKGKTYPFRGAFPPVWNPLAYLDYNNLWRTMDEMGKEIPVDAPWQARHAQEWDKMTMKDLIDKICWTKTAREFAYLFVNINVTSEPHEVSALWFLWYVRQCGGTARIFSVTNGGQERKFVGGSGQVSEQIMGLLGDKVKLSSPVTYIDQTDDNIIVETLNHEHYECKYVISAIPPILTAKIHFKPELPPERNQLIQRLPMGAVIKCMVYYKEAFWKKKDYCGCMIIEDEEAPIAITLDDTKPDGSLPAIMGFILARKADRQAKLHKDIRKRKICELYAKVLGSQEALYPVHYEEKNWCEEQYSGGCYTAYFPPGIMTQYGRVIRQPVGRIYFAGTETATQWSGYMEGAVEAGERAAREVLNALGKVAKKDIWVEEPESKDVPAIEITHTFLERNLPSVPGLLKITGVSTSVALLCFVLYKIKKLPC
# Chain of 5-HT2B (h) (P41595 whole entry): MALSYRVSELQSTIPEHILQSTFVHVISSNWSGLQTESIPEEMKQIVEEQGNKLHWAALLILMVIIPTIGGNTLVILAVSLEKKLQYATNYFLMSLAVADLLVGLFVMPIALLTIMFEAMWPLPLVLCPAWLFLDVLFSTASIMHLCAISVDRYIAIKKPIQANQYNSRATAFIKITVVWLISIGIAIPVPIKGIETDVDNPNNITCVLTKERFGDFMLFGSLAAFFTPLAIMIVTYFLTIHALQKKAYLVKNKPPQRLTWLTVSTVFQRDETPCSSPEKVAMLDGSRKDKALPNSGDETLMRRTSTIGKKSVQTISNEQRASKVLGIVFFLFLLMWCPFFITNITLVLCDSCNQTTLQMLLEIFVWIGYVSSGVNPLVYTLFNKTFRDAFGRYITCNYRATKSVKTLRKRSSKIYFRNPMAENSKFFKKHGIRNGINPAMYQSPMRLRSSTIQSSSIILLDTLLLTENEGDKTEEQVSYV
# Chain of enzyme and uptake assay panel targets (Table 36) (Homo sapiens, UniProt Q08499) (Q08499 whole entry): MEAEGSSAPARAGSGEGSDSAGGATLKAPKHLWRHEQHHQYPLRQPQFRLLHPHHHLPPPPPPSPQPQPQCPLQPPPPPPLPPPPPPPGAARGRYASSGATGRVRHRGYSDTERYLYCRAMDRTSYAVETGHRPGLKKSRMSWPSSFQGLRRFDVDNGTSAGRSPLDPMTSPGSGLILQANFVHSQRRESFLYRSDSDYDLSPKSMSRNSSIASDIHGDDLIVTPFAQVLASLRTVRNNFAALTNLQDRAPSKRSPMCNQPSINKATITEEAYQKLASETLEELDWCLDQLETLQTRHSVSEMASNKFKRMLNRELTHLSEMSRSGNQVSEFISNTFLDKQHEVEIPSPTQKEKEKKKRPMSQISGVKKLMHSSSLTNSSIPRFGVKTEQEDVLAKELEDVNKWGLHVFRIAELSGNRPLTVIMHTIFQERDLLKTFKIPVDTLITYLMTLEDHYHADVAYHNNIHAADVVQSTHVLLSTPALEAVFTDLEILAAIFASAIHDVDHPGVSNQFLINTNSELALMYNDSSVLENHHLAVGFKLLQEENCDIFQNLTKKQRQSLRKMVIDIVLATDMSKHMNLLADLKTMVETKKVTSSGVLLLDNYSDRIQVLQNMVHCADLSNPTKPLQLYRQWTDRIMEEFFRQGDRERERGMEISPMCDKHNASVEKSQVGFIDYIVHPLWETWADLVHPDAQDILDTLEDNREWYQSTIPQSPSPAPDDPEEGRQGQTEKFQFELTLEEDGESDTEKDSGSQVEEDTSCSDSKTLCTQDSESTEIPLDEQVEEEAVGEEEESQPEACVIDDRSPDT
smiles,measurement,setting,value
[2H]C([2H])([2H])C(O)(c1nc2ccc(Cl)cc2cc1N)C([2H])([2H])[2H] [Compound I-1],inhibition at 10 µM,5-HT2B (h); [5],60.8%
same,inhibition at 10 µM,5-HT2B (h); [6],64.2%
same,inhibition at 10 µM,5-HT2B (h); [7],62.5%
same,inhibition at 10 µM,MAO-A; [5],66.4%
same,inhibition at 10 µM,MAO-A; [6],70.7%
same,inhibition at 10 µM,MAO-A; [7],68.5%
same,inhibition at 10 µM,MT3 (ML2); [5],69%
same,inhibition at 10 µM,MT3 (ML2); [6],73.3%
same,inhibition at 10 µM,MT3 (ML2); [7],71.1%
same,inhibition at 10 µM,PR (h); [5],58.7%
same,inhibition at 10 µM,PR (h); [6],63.1%
same,inhibition at 10 µM,PR (h); [7],60.9%
same,% of Control Values 1st,guanylyl cyclase (h),0.2%
same,% of Control Values 2nd,guanylyl cyclase (h),0.3%
same,% of Control Values Mean,guanylyl cyclase (h),0.2%
same,% inhibition of Control Values 1st,[1],20.1%
same,% inhibition of Control Values 2nd,[1],−2.6%
same,% inhibition of Control Values Mean,[1],8.8%
same,% inhibition of Control Values 1st,[2],15.9%
same,% inhibition of Control Values 2nd,[2],16.9%
same,% inhibition of Control Values Mean,[2],16.4%
same,% inhibition of Control Values 1st,[3],0.9%
same,% inhibition of Control Values 2nd,[3],−4.5%
same,% inhibition of Control Values Mean,[3],−1.8%
same,% inhibition of Control Values 1st,[4],5.8%
same,% inhibition of Control Values 2nd,[4],14.7%
same,% inhibition of Control Values Mean,[4],10.3%
"CC(C)(O)c1nc2ccc(Cl)cc2cc1N [NS2, 2-(3-amino-6-chloroquinolin-2-yl)propan-2-ol]",metabolite profile,"human hepatocytes; NS2, 120 min, human hepatocytes","metabolized to M1, M7, M8, and a low amount of M9, with some unchanged NS2 remaining; also recorded: a mono-oxidation metabolite (M), two oxidation+glucuronidation metabolites (M7 and M9), and a glucuronidation metabolite (M)"
same,Peak Areas Human,"human hepatocytes; human, 120 min, 3 μM",4.41E+08
same,% of Control (PI),rat hippocampal cultures; [8],167 ± 10%
same,"PI signal, Mean",rat hippocampal cultures; [8],261
same,"PI signal, replicate wells",rat hippocampal cultures; [8],246 (4×) and 323
same,% of Control (PI),rat hippocampal cultures; [9],171 ± 9%
same,"PI signal, Mean",rat hippocampal cultures; [9],266
same,"PI signal, replicate wells",rat hippocampal cultures; [9],246 (2×) and 267 and 319 and 254
same,% of Control (PI),rat hippocampal cultures; [10],108 ± 20%
same,"PI signal, Mean",rat hippocampal cultures; [10],169*
same,"PI signal, replicate wells",rat hippocampal cultures; [10],180 (3×) and 57 and 246
same,% of Control (PI),rat hippocampal cultures; [11],115 ± 13%
same,"PI signal, Mean",rat hippocampal cultures; [11],180*
same,"PI signal, replicate wells",rat hippocampal cultures; [11],246 and 137 and 144 and 180 and 192
same,% of Control (PI),rat hippocampal cultures; [12],130 ± 8%
same,"PI signal, Mean",rat hippocampal cultures; [12],203*
same,"PI signal, replicate wells",rat hippocampal cultures; [12],188 and 217 and 246 and 184 and 180
same,% of Control (PI),rat hippocampal cultures; [13],189 ± 9%
same,"PI signal, Mean",rat hippocampal cultures; [13],267
same,"PI signal, replicate wells",rat hippocampal cultures; [13],315 and 259 and 246 and 263 and 254
same,% of Control (PI),rat hippocampal cultures; [14],190 ± 9%
same,"PI signal, Mean",rat hippocampal cultures; [14],268
same,"PI signal, replicate wells",rat hippocampal cultures; [14],254 (3×) and 315 and 263
same,% of Control (PI),rat hippocampal cultures; [15],115 ± 11%
same,"PI signal, Mean",rat hippocampal cultures; [15],163*
same,"PI signal, replicate wells",rat hippocampal cultures; [15],117 and 137 and 180 and 188 and 192
same,% of Control (PI),rat hippocampal cultures; [16],113 ± 11%
same,"PI signal, Mean",rat hippocampal cultures; [16],159*
same,"PI signal, replicate wells",rat hippocampal cultures; [16],192 and 117 and 125 and 180 (2×)
same,% of Control (PI),rat hippocampal cultures; [17],138 ± 6%
same,"PI signal, Mean",rat hippocampal cultures; [17],195*
same,"PI signal, replicate wells",rat hippocampal cultures; [17],188 and 180 (2×) and 204 and 221
same,% of Control (PI),rat hippocampal cultures; [18],165 ± 22%
same,"PI signal, Mean",rat hippocampal cultures; [18],232
same,"PI signal, replicate wells",rat hippocampal cultures; [18],350 and 180 (2×) and 204 and 246
same,% of Control (PI),rat hippocampal cultures; [19],172 ± 24%
same,"PI signal, Mean",rat hippocampal cultures; [19],242
same,"PI signal, replicate wells",rat hippocampal cultures; [19],180 and 192 and 184 and 315 and 337
same,% of Control (PI),rat hippocampal cultures; [20],113 ± 12%
same,"PI signal, Mean",rat hippocampal cultures; [20],160*
same,"PI signal, replicate wells",rat hippocampal cultures; [20],180 and 188 and 117 (2×) and 196
same,% of Control (PI),rat hippocampal cultures; [21],99 ± 7%
same,"PI signal, Mean",rat hippocampal cultures; [21],139*
same,"PI signal, replicate wells",rat hippocampal cultures; [21],180 and 133 and 129 (2×) and 125
same,% of Control (PI),rat hippocampal cultures; [22],120 ± 6%
same,"PI signal, Mean",rat hippocampal cultures; [22],169*
same,"PI signal, replicate wells",rat hippocampal cultures; [22],180 (3×) and 133 and 172
same,% of Control (PI),rat hippocampal cultures; [23],175 ± 17%
same,"PI signal, Mean",rat hippocampal cultures; [23],275
same,"PI signal, replicate wells",rat hippocampal cultures; [23],350 and 259 and 246 and 315 and 204
same,% of Control (PI),rat hippocampal cultures; [24],143 ± 9%
same,"PI signal, Mean",rat hippocampal cultures; [24],225
same,"PI signal, replicate wells",rat hippocampal cultures; [24],188 and 250 and 246 (2×) and 196
same,% of Control (PI),rat hippocampal cultures; [25],115 ± 2%
same,"PI signal, Mean",rat hippocampal cultures; [25],181*
same,"PI signal, replicate wells",rat hippocampal cultures; [25],180 (3×) and 192 and 172
same,% of Control (PI),rat hippocampal cultures; [26],111 ± 18%
same,"PI signal, Mean",rat hippocampal cultures; [26],175*
same,"PI signal, replicate wells",rat hippocampal cultures; [26],246 (2×) and 133 and 125 (2×)
same,% of Control (PI),rat hippocampal cultures; [27],113 ± 15%
same,"PI signal, Mean",rat hippocampal cultures; [27],177*
same,"PI signal, replicate wells",rat hippocampal cultures; [27],117 and 250 and 180 and 204 and 133
same,Full Efficacy Concentration,rat hippocampal cultures; [28],10 µM
same,No effect Concentration,rat hippocampal cultures; [28],1 µM
same,EC50,"rat hippocampal cultures; PI, Captisol formulation, 10 μM hydrogen peroxide, 5 h, values with * are estimates, listed as NS2 (J-Star), read-out: EC50 ± SE",2800 nM
same,Full Efficacy Concentration,rat hippocampal cultures; [29],10 µM
same,No effect Concentration,rat hippocampal cultures; [29],1 µM
same,EC50,"rat hippocampal cultures; PI, DMSO formulation, 10 μM hydrogen peroxide, 5 h, values with * are estimates, listed as NS2 (J-Star), read-out: EC50 ± SE",1100 nM
same,Full protection concentration,"rat hippocampal cultures; PI, both NS2 formulations and both batches",10 µM
same,no effect concentration,"rat hippocampal cultures; PI, both formulations and batches",1 µM
same,EC50,"rat hippocampal cultures; Rattus norvegicus, 5 h, PI, DMSO formulation, 10 μM hydrogen peroxide, 5 h, values with * are estimates, read-out: EC50 ± SE",1300 nM
same,EC50,"rat hippocampal cultures; Rattus norvegicus, PI, across formulations and batches, read-out: EC50 range",1100 to 2800 nM
same,EC50,"rat hippocampal cultures; Rattus norvegicus, PI, best available estimate, read-out: EC50, mean value for all PI data",2000 ± 1000 nM
same,metabolite profile,"rat hepatocytes; NS2, 120 min, rat hepatocytes","metabolized to M1, M7, and M8, with some unchanged NS2 remaining"
same,Peak Areas Rat,"rat hepatocytes; rat, 120 min, 3 μM",3.14E+08
